Patent publication US9738612B2, “Methylacryloyl benzimidazolone derivative and anti-tumour use thereof” (SHANGHAI NATURE STANDARD R&D AND BIOTECH CO., LTD, priority 2014, dated 2017)

Tests used:
[1] = system: PI3K/Akt/mTOR signaling pathway; assay: Inhibition test to signaling pathway at the cellular level (FIG. 4); format: cell-based; conditions: different concentrations, FIG. 4, in words
Experimental: A549 cells were seeded at a density of 2×10^5 cells/well into 12-well plates, and adhered overnight. Then the medium was discarded and the plates were washed three times with normal saline. After that, fresh serum-free medium was added to starve cells for 24 hours, compounds to be tested were added to work for 1 h, then IGF-I was added to stimulated for 10 min, followed byadding a lysis buffer on ice to lyse for half an hour. The cell lysates were collected and centrifuged at 20000×g at 4° C. for 10min, then the supernatant was collected. Protein was quantified by MicroBCA protein quantification Assay kit, and the protein concentration was normalized. The supernatant was mixed with the 4×SDS sample buffer [200 mM Tris.Cl (pH 6.8), 400 mM DTT, 8% SDS, 0.4% bromophenol blue, 40% glycerol] and boiled for 15 min. After cooling at room temperature, aliquots were loaded on polyacrylamide gel, and electrophoresed in Tris-glycine electrophoretic buffer (25 mM Tris, 250 mM glycine, 0.1% SDS) at 80-120 V for about 2 h. Proteins were transferred from the gel to a nitrocellulose membrane by a semi-dry method. Transferring conditions: transfer buffer (39 mM glycine, 48 mM Tris base, 0.037% SDS, 20% methanol); transfer current 25 mA; transfer time 2 h. After transfer, Ponceau S staining was used to determine the transfer efficiency and the positions of protein bands on the nitrocellulose membranes. […]

Hela cells = assay: Subcutaneous transplantation of Hela cells into nude mice; format: in vivo
Experimental: The method used herein for animal experiment was that using the subcutaneous transplantation of Hela cells into nude mice.
Tumor tissues at vigorous growth phase were cut into the size of about 1.5mm^3, and inoculated subcutaneously to the right armpit of nude mice under sterile condition. The diameters of subcutaneous xenograft tumors in nude mice were measured with a vernier caliper. The animals were randomly divided when the tumors grew to the sizes of 100-200 mm^3. FD162 was divided into three groups: 20mg/kg, 10mg/kg and 5mg/kg, with 9 mice per group; rapamycin was 10mg/kg; the model group was given saline. All treatments were intraperitoneally administered once a day for 12 days. Throughout the experiment, tumor diameters and body weights were measured simultaneously twice a week. Tumor volume (TV) was calculated as follows: TV=½×a×b2, where a, b respectively represents the length and width of tumors. […]

p-Akt (S473) = assay: Western blot, p-Akt (S473) in IGF stimulated A549 cells; format: cell-based; conditions: compound 1 h, IGF 10 min, FIG. 1, in words
Experimental: A549 cells were seeded at a density of 2×10^5 cells/well into 12-well plates, and adhered overnight. Then the medium was discarded and the plates were washed three times with normal saline. After that, fresh serum-free medium was added to starve cells for 24 hours, compounds to be tested were added to work for 1 h, then IGF-I was added to stimulated for 10 min, followed byadding a lysis buffer on ice to lyse for half an hour. The cell lysates were collected and centrifuged at 20000×g at 4° C. for 10min, then the supernatant was collected. Protein was quantified by MicroBCA protein quantification Assay kit, and the protein concentration was normalized. The supernatant was mixed with the 4×SDS sample buffer [200 mM Tris.Cl (pH 6.8), 400 mM DTT, 8% SDS, 0.4% bromophenol blue, 40% glycerol] and boiled for 15 min. After cooling at room temperature, aliquots were loaded on polyacrylamide gel, and electrophoresed in Tris-glycine electrophoretic buffer (25 mM Tris, 250 mM glycine, 0.1% SDS) at 80-120 V for about 2 h. Proteins were transferred from the gel to a nitrocellulose membrane by a semi-dry method. Transferring conditions: transfer buffer (39 mM glycine, 48 mM Tris base, 0.037% SDS, 20% methanol); transfer current 25 mA; transfer time 2 h. After transfer, Ponceau S staining was used to determine the transfer efficiency and the positions of protein bands on the nitrocellulose membranes. After labeling the membrane was blocked with a blocking solution containing 5% nonfat-dried milk [5% nonfat-dried milk, 20 mM Tris-HCl (pH 7.2-7.4), 150 mM NaCl, 0.1% (v/v) Tween 20] on a shaker at room temperature for 2 h. To the system were added specific primary antibodies and incubated overnight at 4° C. Then the membrane was washed with PBST solution [20 mM Tris-HCl (pH 7.2-7.4), 150 mM NaCl, 0.1% (v/v) Tween 20] at room temperature three times, 15 min/time. To the system were added Horseradish peroxidase-labeled secondary antibodies and incubated at room temperature on a shaker with gentle shaking for 2 h. After washing with PBST solution three times, the system was exposed, developed and fixed after SuperSignal West Dura Chemiluminescent Substrate (Pierce Inc, Rochford, IL) was used for color. The results were shown in FIG. 1, in which there were 12 lanes the band shade and size of which indicated the corresponding protein concentration levels. […] MK2206 was an Akt phosphorylation inhibitor developed by Merck, and was currently in phase II clinical trial, showing good therapeutic effects in a variety of tumors.

[2] = system: more than 20 tumor cell lines; assay: Proliferation of more than 20 tumor cell lines (FIG. 2); format: cell-based; conditions: FIG. 2, in words
Experimental: (§1) At a certain density cells were seeded in 96-well plates, and adhered overnight. The medium was discarded after incubating cells with compounds to be tested for 72 h, then 100μL/well trichloroacetic acid (TCA) was added to fix cells at 4° C. for 2h. After that the fixing solution was discarded. Cells were gently washed 5 times with distilled water, dried at room temperature. Cells were stained with 4 mg/mL SRB staining solution (100 μL/well) at room temperature for 15min. The staining solution was discarded, and cells were washed five times with 1% acetic acid (HAC) and dried at room temperature. To the plate tris base buffer (10 mM) was added at 150 μL/well and placed at room temperature for 15min. The OD values were measured at 540 nm wavelength in a microplate reader. Inhibitory rate (%)=(OD valuecontrol wells−OD valuedrugs treated wells)/OD valuecontrol wells×100%.
(§2) In the present invention the inhibition of a representative compound FD162 to the proliferation of more than 20 tumor cell lines were tested, and the experimental methods were the same as that described in Example 2.

SGK(h) = assay: Tumor-associated kinase inhibition test; format: biochemical, human; conditions: 10 μM
Source text: Eurofins Pharma Discovery Services UK Limited completed and reported this experiment.

Hela cell = assay: Sulforhodamine B proliferation; format: cell-based; conditions: Homo sapiens, SRB method of Example 2, FIG. 3, read-out: Half inhibitory concentration to Hela cell proliferation
Experimental: as §1, §2

C=C(C)n1c(=O)n(C(C)=O)c2ncc(Br)cc21 [FD162]
Down-regulation of PI3K/Akt/mTOR signaling pathway [1]: down-regulate PI3K/Akt/mTOR signaling pathway in a dose-dependent manner
Tumor inhibitory rate (Hela cells; 10 mg/kg intraperitoneally once a day for 12 days, Hela xenograft in nude mice): greater than 50%
Tumor inhibiting effect compared with positive control group (rapamycin 10mg/kg) (Hela cells; middle dose (10 mg/kg), i.p., 12 days, FIG. 5, in words): better than the positive control group
Effect on Akt phosphorylation level (p-Akt S473 band) (p-Akt (S473)): significantly reduce the Akt phosphorylation level
Effect on Akt phosphorylation level (p-Akt S473 band) (p-Akt (S473); listed as FD3): comparable effects to MK2206
Inhibition of proliferation of tumor cell lines [2]: widespread inhibitory effects
Inhibitory rate (%) (SGK(h)): −4%
IC50 (Hela cell): 3.67 µM
